Experimental data taken from US20100317607A1, “USE OF COMPOUNDS FOR PREPARING ANTI-TUBERCULOSIS AGENTS” (INFECTIOUS DISEASE RESEARCH INSTITUTE, priority 2007, published 2010).
≈ marks a conversion by molar mass, not a printed value.

These compounds were tested on H37Rv strain of M. tuberculosis (assay: Alamar Blue Susceptibility Test (MABA)). Conditions: H37Rv strain of M. tuberculosis; Alamar Blue.
Format: cell-based

Structure (SMILES) | MABA (TB growth inhibition, colourimetric assay)
Nc1nc(N)c2ccccc2n1 [Comparative compound 2, Quinazoline-2,4-diamine, reference compound] | −

Same assay, conditions: Mycobacterium tuberculosis; H37Rv strain of M. tuberculosis; Alamar Blue; read-out: MABA (TB growth inhibition, colourimetric assay)

Structure (SMILES) | MIC [µM]
O=[N+]([O-])c1ccc(NCCNc2nc(N3CCOCC3)nc3ccccc23)cc1 [Compound 7, N^1-(2-Morpholinoquinazolin-4-yl)-N^2-(4-nitrophenyl)ethane-1,2-diamine] | 50 to 128 (≈ 19.7 to 50.5 µg/mL)
CN1CCN(c2nc(NCCNc3ccc([N+](=O)[O-])cc3)c3ccccc3n2)CC1 [Compound 11, N^1-(2-(4-Methylpiperazin-1-yl)quinazolin-4-yl)-N^2-(4-nitrophenyl)ethane-1,2-diamine] | 50 to 128 (≈ 20.4 to 52.2 µg/mL)
c1ccc(CNc2nc(Nc3ccccc3)nc3ccccc23)cc1 [Compound 23, N^4-Benzyl-N^2-phenylquinazoline-2,4-diamine] | 10 to 50 (≈ 3.26 to 16.3 µg/mL)
CCN(CC)c1nc(NCc2ccccc2)c2ccccc2n1 [Compound 25, N^4-Benzyl-N^2,N^2-diethylquinazoline-2,4-diamine] | 10 to 50 (≈ 3.06 to 15.3 µg/mL)
CCS(=O)(=O)N1CCN(c2nc(NCc3ccccc3)c3ccccc3n2)CC1 [Compound 26, N-Benzyl-2-(4-(ethylsulfonyl)piperazin-1-yl)quinazolin-4-amine] | 50 to 128 (≈ 20.6 to 52.7 µg/mL)
CCOC(=O)CN1CCN(c2nc(NCc3ccccc3)c3ccccc3n2)CC1 [Compound 27, Ethyl 2-(4-(4-(benzylamino)quinazolin-2-yl)piperazin-1-yl)acetate] | 50 to 128 (≈ 20.3 to 51.9 µg/mL)
Cc1ccc(CNc2nc(NCc3ccccc3)c3ccccc3n2)cc1 [Compound 28, N^4-Benzyl-N^2-(4-methylbenzyl)quinazoline-2,4-diamine] | 10 to 50 (≈ 3.54 to 17.7 µg/mL)
CN(Cc1ccccc1)c1nc(NCc2ccccc2)c2ccccc2n1 [Compound 29, N^2,N^4-Dibenzyl-N^2-methylquinazoline-2,4-diamine] | 10 to 50 (≈ 3.54 to 17.7 µg/mL)
CC(C)(C)OC(=O)N1CCN(c2nc(NCc3ccccc3)c3ccccc3n2)CC1 [Compound 31, tert-Butyl 4-(4-(benzylamino)quinazolin-2-yl)piperazine-1-carboxylate] | 10 to 50 (≈ 4.2 to 21 µg/mL)
C[C@H](Nc1nc(N2CCCCC2)nc2ccccc12)c1ccccc1 [Compound 32, (S)—N-(1-Phenylethyl)-2-(piperidin-1-yl)quinazolin-4-amine] | 10 to 50 (≈ 3.32 to 16.6 µg/mL)
c1ccc(CNc2nc(N3CCCCC3)nc3ccccc23)nc1 [Compound 46, 2-(Piperidin-1-yl)-N-(pyridin-2-ylmethyl)quinazolin-4-amine] | 50 to 128 (≈ 16 to 40.9 µg/mL)
c1cncc(CNc2nc(N3CCCCC3)nc3ccccc23)c1 [Compound 47, 2-(Piperidin-1-yl)-N-(pyridin-3-ylmethyl)quinazolin-4-amine] | 50 to 128 (≈ 16 to 40.9 µg/mL)
c1ccc(C(Nc2nc(N3CCCCC3)nc3ccccc23)c2ccccc2)cc1 [Compound 50, N-Benzhydryl-2-(piperidin-1-yl)quinazolin-4-amine] | 10 to 50 (≈ 3.95 to 19.7 µg/mL)
c1ccc(CNc2nc(N3CCNCC3)nc3ccccc23)cc1 [Compound 51, N-Benzyl-2-(piperazin-1-yl)quinazolin-4-amine] | 50 to 128 (≈ 16 to 40.9 µg/mL)
c1ccc(CNc2nc(N3CCCOCC3)nc3ccccc23)cc1 [Compound 52, N-Benzyl-2-(1,4-oxazepan-4-yl)quinazolin-4-amine] | 10 to 50 (≈ 3.34 to 16.7 µg/mL)
CC(C)(C)OC(=O)N1CCCN(c2nc(NCc3ccccc3)c3ccccc3n2)CC1 [Compound 55, tert-Butyl 4-(4-(benzylamino)quinazolin-2-yl)-1,4-diazepane-1-carboxylate] | 10 to 50 (≈ 4.34 to 21.7 µg/mL)
CC(C)C(=O)N1CCN(c2nc(NCc3ccccc3)c3ccccc3n2)CC1 [Compound 56, 1-(4-(4-(Benzylamino)quinazolin-2-yl)piperazin-1-yl)-2-methylpropan-1-one] | 50 to 128 (≈ 19.5 to 49.9 µg/mL)
CC(C)(C)C(=O)N1CCN(c2nc(NCc3ccccc3)c3ccccc3n2)CC1 [Compound 57, 1-(4-(4-(Benzylamino)quinazolin-2-yl)piperazin-1-yl)-2,2-dimethylpropan-1-one] | 10 to 50 (≈ 4.04 to 20.2 µg/mL)
O=C(c1ccccc1)N1CCN(c2nc(NCc3ccccc3)c3ccccc3n2)CC1 [Compound 58, 1-(4-(4-(Benzylamino)quinazolin-2-yl)piperazin-1-yl)(phenyl)methanone] | 10 to 50 (≈ 4.24 to 21.2 µg/mL)
